According to US20160353747A1, “COMPOSITIONS AND METHODS FOR ACHIEVING A BIOLOGICAL EFFECT IN TARGET VEGETATION” (Ento Bio LLC, priority 2015, published 2016):

System: zinnia (Zinnia peruviana var. “Giant Dahlia”) seedlings
Test: Herbicidal effect (percent control) on zinnia seedlings
Assay type: in vivo
Details: Enz 0 mg, 2 mL dose
Description: In one example, combinations of cellulase and hemicellulase from Trichoderma viride (i.e. depolymerase, labeled “Enz” in Table 1), bovine serum albumin (i.e. non-depolymerase protein, labeled “BSA” in Table 1), and glyphosate (labeled “Gly” in Table 1) are blended and applied in 2 mL doses directly to zinnia (Zinnia peruviana var. “Giant Dahlia”) seedlings at the first true leaf stage. Treatments ranged from 0-1.6 mg of depolymerase that consisted of cellulase from Trichoderma viride and hemicellulase from Aspergillus niger in a ratio of 10.5:6, respectively; non-depolymerase BSA from 0-24 mg; and glyphosate from 0-0.3 mg. […] Herbicidal effect was assessed 12 days after treatment (DAT). Percent control ratings ascertained the extent of control, i.e. reduction in growth, and were scored on a basis of 0 to 100 where 100 represents complete killing of the plants and 0 represents no reduction in growth as compared to the untreated control.

**Q.** With `O=C(O)CNCP(=O)(O)O` [Gly, glyphosate] as the compound, how does the “Percent Control 12 DAT” value (Gly 0.003 mg, BSA 0 mg) read?
**A.** The value was 0%.

**Q.** And the “Percent Control 12 DAT” value (Gly 0.03 mg, BSA 0 mg)?
**A.** Its value is 28%.

**Q.** And the “Percent Control 12 DAT” value (Gly 0.3 mg, BSA 0 mg)?
**A.** Its value is 28%.

**Q.** How did the “Percent Control 12 DAT” value (Gly 0 mg, BSA 0.24 mg) turn out when bovine serum albumin [BSA] was run?
**A.** The value was 3%.

**Q.** What about the “Percent Control 12 DAT” value (Gly 0 mg, BSA 2.4 mg) of the same compound?
**A.** The value was 7%.

**Q.** And the “Percent Control 12 DAT” value (Gly 0 mg, BSA 24 mg)?
**A.** The value was 13%.
